According to patent US12139488B2, “Pyrido[3,2-d]pyrimidine compounds uses thereof for treating a proliferative disease” (Universite de Montreal, priority 2021, dated 2024):
Where two headings read alike, the source gives them in different places.

How the values were obtained:
Type in all cases: cell-based, human
[1] = system: pERK in SK-MEL30 cells (NRAS-Q61K); assay: Phospho-ERK inhibition (AlphaLISA), SK-MEL30; conditions: for SK-MEL30 pERK % Ymin: SK-MEL30, value in parentheses
Experimental: (§1) All cancer cell lines (A375, A101D, A2058, RKO, HT29 SK-MEL 30, IPC298, HepG2, HCT-116, Lovo, SWV620, SW480, NCI-H358, NCI-H2122, Calu-6, NCIH2087, NCIH1755, NCIH1666 and Mewo) were obtained from ATCC and cultured in RPMI-1640 medium (Gibco) supplemented with 5% heat inactivated fetal bovine serum (FBS, Wisent) at 37° C. under 5% CO2. Cells were maintained in T175 flasks (Greiner). They were passaged by removing the culture medium, washing once in 10 mL of room temperature Phosphate Buffered Saline (PBS; Wisent) and incubating at 37° C. with 2 mL of 0.05% Trypsin (Thermo-Fisher). Trypsin was then inactivated by adding complete growth medium and the cells were then replated in a T175 culture dish at the appropriate dilution. All cell lines were routinely tested for mycoplasma contamination. Tissue type and mutational status of each cell line can be found in Table B.
(§2) AlphaLISA® SureFire® Ultra™ p-ERK 1/2 (Thr202/Tyr204) analysis was conducted on cells plated in 100 μL of complete RPMI-1640 growth medium in 96-well flat-bottomed transparent dishes (Costar) at a density indicated in Table C. Cells were maintained overnight at 37° C. under 5% CO2 before treatment with compounds' dilution series for one hour. The cell density in cells/cm^2 corresponds to cell number divided by the area of one well of a 96-well plate ([…]).
(§3) In a dilution series 100 μL/well of test substance dilution prepared in complete RPMI-1640 growth media was added to the cells. The dilution series is selected so that ten concentrations cover a range from 10 μM to 0.33 nM. If necessary the initial concentration of 10 μM is increased to 100 μM or lowered to 1 μM (as in the case of A375 and H1666 cells, which are generally more sensitive to the compounds) and further dilution is carried out accordingly. The final concentration of DMSO in the assay is set at 0.5%.
(§4) After treatment, media was removed and cells were lysed in 50 μL of 1× AlphaScreen Ultra Lysis Buffer (Perkin Elmer). The AlphaLISA® SureFire® Ultra™ p-ERK 1/2 (Thr202/Tyr2O4) (PerkinElmer) reactions were performed with 5 μL of cell lysate according to the manufacturer's specifications in 384-well proxyplates (Perkin Elmer) followed by overnight incubation of the reactions at room temperature in a humidified chamber. After completion of the reactions, the signals were recorded on an EnVision plate reader (Perkin Elmer) using built in AlphaLISA® settings.
(§5) The effect of each compound dilution on the pERK signal was expressed in % inhibition and calculated as follows. An internal 100% inhibition control ([…] trametinib, cat #HY-10999; MedChem Express; CAS #871700-17-3) was included in each plate and used as a measure of pERK background. First, the value obtained for trametinib was subtracted from each data point. The average of DMSO (vehicle) controls (set as 0% inhibition) was established and used to calculate % inhibition: % inhibition=100*(1-((pERK signalcompound)/(pERK signalDMSO)))
(§6) The ability of each compound to inhibit pERK signal was expressed as an IC50 value obtained by plotting the inhibition values for each data point of a dilution series and fitting the obtained curves using a log(agonist) versus response-variable slope (four parameters) function using GraphPadPrism (V7.0) or Dotmatics Screening Ultra platform.
(§7) When present, paradoxical pERK induction is inferred from the negative % inhibition values observed in the pERK IC50 curves of a compound.

[2] = system: NCI-H2122 cells (KRAS-G12C); assay: Proliferation inhibition (CellTiter-Glo), NCI-H2122; conditions: NCI-H2122, 3 days, read-out: NCI-H2122 Prolif. EC50
Experimental: as §1
(§8) CellTiter-Glo® viability analysis was conducted on cells plated in 100 μL of complete RPMI-1640 growth medium in 96-well flat-bottomed white opaque plates (Greiner or Croning) at a density indicated in Table E (for each CCL, number of cells plated per well of a 96-well plate to perform the CellTiter-Glo® cell viability assay). The cell density in cells/cm^2 would correspond to cell number divided by the area of one well of a 96-well plate (0.32 cm^2). […]
(§9) After 3 days of incubation, the growth media were removed by aspiration and 60 μL of diluted CellTiter-Glo® reagent (10 μL CellTiter-Glo® reagent+50 μL of PBS) was added to each well. […] Luminescence signals were then acquired on a Synergy Neo2 plate reader (Biotek).
(§10) The effect of each compound dilution on the proliferation of cancer cell lines was expressed in % inhibition and calculated as follows. […]
as §6, with “proliferation” for “pERK signal”, “a EC50” for “an IC50”, “effect” for “inhibition”

[3] = system: Lovo cells (KRAS-G13D); assay: Proliferation inhibition (CellTiter-Glo), Lovo; conditions: 3 days, read-out: Lovo Prolif. EC50
Experimental: as §1, §8, §9, §10
as §6, with “proliferation” for “pERK signal”, “a EC50” for “an IC50”, “effect” for “inhibition”

[4] = system: pERK in SW480 cells (KRAS G12D); assay: Phospho-ERK inhibition (AlphaLISA), SW480; conditions: for SW480 pERK % Ymin: value in parentheses
Procedure, shortened: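 Read-out: AlphaLISA p-ERK1/2 (Thr202/Tyr204) in lysates after 1 h exposure to compound in complete RPMI-1640, 5% FBS, 0.5% DMSO. Trametinib defined 100% inhibition and vehicle 0%; IC50 values come from four-parameter curves. Negative inhibition was taken as paradoxical pERK induction.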

[5] = system: SK-MEL30 cells (NRAS-Q61K); assay: Proliferation inhibition (CellTiter-Glo), SK-MEL30; conditions: SK-MEL30, 3 days, read-out: SK-MEL30 Prolif. EC50
Experimental: as §1, §8, §9, §10
as §6, with “proliferation” for “pERK signal”, “a EC50” for “an IC50”, “effect” for “inhibition”

[6] = system: pERK in SW620 cells (KRAS-G12V); assay: Phospho-ERK inhibition (AlphaLISA), SW620; conditions: for SW620 pERK % Ymin: SW620, value in parentheses
Experimental: as §1, §2, §3, §4, §5, §6, §7

| IC50 ([1]; Homo sapiens, SK-MEL-30) [nM] | EC50 ([2]; Homo sapiens, 72 h) [nM] | EC50 ([3]; Homo sapiens, 72 h) [nM] | IC50 ([4]; Homo sapiens, SW480, Table D) [nM] | EC50 ([5]; Homo sapiens, SK-MEL-30, 72 h) [nM] | IC50 ([6]; Homo sapiens, SW-620) [nM] | IC50 ([1]; SK-MEL30) [nM] | EC50 [2] [nM] | EC50 [3] [nM] | IC50 ([4]; SW480, Table D) [nM] | IC50 ([4]; SW480 cells, class symbol before the bracket) [nM] | EC50 [5] [nM] | IC50 ([6]; SW620) [nM] | IC50 ([4]; SW480 cells, class symbol) [nM] | Structure (SMILES) | SK-MEL30 pERK % Ymin [1] [%] | SW480 pERK % Ymin ([4]; SW480, Table D) [%] | SW620 pERK % Ymin [6] [%] | SW480 pERK Ymin % ([4]; SW480 cells, Ymin in brackets) [%] |
| --- | --- | --- | --- | --- | --- | --- | --- | --- | --- | --- | --- | --- | --- | --- | --- | --- | --- | --- |
| < 30 | 300 to 3000 | < 30 | 30 to 300 | < 30 | 30 to 300 | – | – | – | – | – | – | – | – | Cc1ccc2c(Nc3cccc(Cl)c3F)nccc2c1NC(=O)c1csc2c(N)ncnc12 [Belvarafenib, reference compound] | −45 | −100 | −151 | – |
| – | – | – | – | – | – | < 30 | 300 to 3000 | < 30 | 30 to 300 | < 500 | < 30 | 30 to 300 | – | Nc1cccc2c1ncn2-c1ccc2ncnc(Nc3c(F)ccc(NS(=O)(=O)c4cccc(Cl)c4Cl)c3F)c2n1 [Example 99] | −1 | −7 | −11 | −0.3 |
| – | – | – | – | – | – | < 30 | 300 to 3000 | < 30 | 30 to 300 | – | < 30 | 30 to 300 | < 500 | CC1(O)CCN(c2cccc3c2ncn3-c2ccc3ncnc(Nc4c(F)ccc(NS(=O)(=O)c5cccc(Cl)c5Cl)c4F)c3n2)CC1 [Example 524] | −13 | 0 | −4 | – |
